These results are taken from patent US20060067990A1 (priority 2004, published 2006).

Several values for one entry are separate records, joined by “and”; a condition that tells them apart may be missing. Equal entries are not always repeated.

The subject of series [1] is enzymes produced by S. aureus MN8. The experiment in a line: Breakdown of test compounds by enzymes produced by S. aureus MN8 (GC/MS and liquid chromatography of culture fluid). Type of series: in vitro ADME, Staphylococcus aureus. The following applies: Example 7; for GC/MS: concentration of the dominant compound over time / GC/MS: dominant compound found in the sample: culture fluid at 3, 6, 9 and 24 hours. The protocol: The test compounds, in the desired concentrations, were placed in 100 mL of a growth medium in a sterile, 500 mL Corning Fleaker (Fisher Scientific, Pittsbury, Pa.). The growth medium and inoculum were prepared as in Example 1.
The test compounds were added to the growth medium in the amount necessary to obtain the desired final concentration.
Each fleaker was inoculated with the amount of inoculum determined as described above. The fleakers were capped with sterile aluminum foil and incubated at 35° C. in atmospheric air in a Lab-Line orbital water bath (available from VWR Scientific Products, McGaw Park, Ill.) at 180 rpm. Fifteen milliliter samples were removed at 3, 6, 9, and 24 hours. The optical density (595 nm) of the culture fluid was determined and the culture fluid collected at 24 hours was assayed for the number of colony forming units of S. aureus MN8 using standard plate count procedures.
In preparation for analysis of the integrity of the test compounds, the culture fluid was centrifuged at 3000 rpm at 2-10° C. for 15 minutes. The supernatant was filter sterilized through an AUTOVIAL 5 syringeless filter, […] pore size (available from Whatman, Inc., Clifton, N.J.). The resulting fluid was frozen at −70° C. in a FISHERBRAND (12 mm×75 mm) polystyrene culture tube (Fisher Scientific, Pittsburgh, Pa.) until chemical analysis could be performed.
Using an Agilent Technologies 5973N GC/MS, analysis was performed on undiluted solutions at 3, 6, 9, and 24 hours to evaluate the ability of S. aureus MN8 to breakdown the test compounds. Based on the analysis, the control sample, which had no test compounds added, comprised mostly acetic acid at all time intervals.
Additional analysis of the 6 hour and 24 hour samples was conducted by liquid chromatography. In preparation for the chromatography, the samples were diluted 10 fold with water. The dilutions were then analyzed using an ion exclusion column to achieve the separation. Detection of the compounds was accomplished through UV absorbance at 230 nm.

In another series the test system is S. aureus MN8. Type of series: cell-based, Staphylococcus aureus.
Series [2] deals with TSST-1. Type of series: cell-based, Staphylococcus aureus.
The test system of series [3] is TSST-1. Type of series: cell-based, Staphylococcus aureus. This is another data set of the same source.

For the compound `O=C(O)c1ccccc1` [benzoic acid], in series [1], the “GC/MS: concentration of the dominant compound over time” value (“GC/MS: concentration … over time” for short) is on record as “decreased over time” and the “GC/MS: dominant compound found in the sample” value (shortened to “GC/MS: dominant compound found”) is recorded as “benzoic acid”.

For `CC(C)CC(NC(=O)c1ccccc1)C(=O)O` (racemic) [N-benzoyl-DL-leucine, N-Benzoyl-DL-Leucine], in series [1] (6 hour and 24 hour samples, UV 230 nm), the “liquid chromatography: evidence of breakdown to the active species” value is listed as “breakdown to benzoic acid”. In series [1], the “GC/MS: concentration … over time” value is “decreasing concentration over time” and the “GC/MS: dominant compound found” value was “benzoic acid as the dominant compound”. Further, the CFU/mL in the series on S. aureus MN8 was 2.23E+08 CFU/mL and 2.69E+08 CFU/mL. In addition, the “ELISA: TSST-1 ng per mL” value in the series on TSST-1 [2] was 7.9 ng per mL and 14.6 ng per mL.

On to myreth-3-myristate [Cetiol 1414E], for which, in the series on S. aureus MN8, the CFU/mL was 1.75E+08 CFU/mL and 2.61E+08 CFU/mL and 2.48E+08 CFU/mL and 2.05E+08 CFU/mL; the “CFU/mL ×10^7” value was 22.5 CFU/mL ×10^7 and 25.6 CFU/mL ×10^7 and 17.4 CFU/mL ×10^7; the “inhibition of the growth of S. aureus, pairwise statistical comparison” value is given as “significantly greater inhibition of the growth of S. aureus”. In the series with TSST-1 [2], the “% Reduction” value was 74% and 69% and 87%; the “ELISA: TSST-1 (% inhibition)” value was “(79%)”; the “ELISA: TSST-1 Nanograms/mL” value is 61 Nanograms/mL.

Take `OCc1ccccc1` [Benzyl alcohol, benzyl alcohol]: in series [1], the “GC/MS: concentration … over time” value is listed as “decreased over time” and the “GC/MS: dominant compound found” value was “benzyl alcohol”. Besides, the CFU/mL in the series on S. aureus MN8 was 5.02E+08 CFU/mL and 7.52E+08 CFU/mL. Moreover, the “TSST-1 ng/mL” value in the series on TSST-1 [3] is 2.46 ng/mL and 2.22 ng/mL and 1.33 ng/mL. In the series with TSST-1 [2], the “toxin production, pairwise statistical comparison” value is on record as “significantly decreased toxin production”.

As to `CC(C)C(NC(=O)c1ccccc1)C(=O)O` (racemic) [N-benzoyl-DL-valine, N-Benzoyl-DL-Valine], the CFU/mL in the series on S. aureus MN8 was 1.61E+08 CFU/mL and 2.07E+08 CFU/mL.

Turning to `CCCCCCCCCCCC(=O)OCc1ccccc1` [Benzyl laurate, Benzyl- laurate], the CFU/mL with S. aureus MN8 is 2.05E+08 CFU/mL and 3.05E+08 CFU/mL and 4.05E+08 CFU/mL and 3.80E+08 CFU/mL.
